From ChEMBL document CHEMBL1759863, “Synthesis and biological activity of hydroxy substituted phenyl-benzo[d]thiazole analogues for antityrosinase activity in B16 cells” (Bioorg Med Chem Lett, 2011)

T1: Tyrosinase (Mus musculus) (UniProt P11344)
T1 sequence (whole entry): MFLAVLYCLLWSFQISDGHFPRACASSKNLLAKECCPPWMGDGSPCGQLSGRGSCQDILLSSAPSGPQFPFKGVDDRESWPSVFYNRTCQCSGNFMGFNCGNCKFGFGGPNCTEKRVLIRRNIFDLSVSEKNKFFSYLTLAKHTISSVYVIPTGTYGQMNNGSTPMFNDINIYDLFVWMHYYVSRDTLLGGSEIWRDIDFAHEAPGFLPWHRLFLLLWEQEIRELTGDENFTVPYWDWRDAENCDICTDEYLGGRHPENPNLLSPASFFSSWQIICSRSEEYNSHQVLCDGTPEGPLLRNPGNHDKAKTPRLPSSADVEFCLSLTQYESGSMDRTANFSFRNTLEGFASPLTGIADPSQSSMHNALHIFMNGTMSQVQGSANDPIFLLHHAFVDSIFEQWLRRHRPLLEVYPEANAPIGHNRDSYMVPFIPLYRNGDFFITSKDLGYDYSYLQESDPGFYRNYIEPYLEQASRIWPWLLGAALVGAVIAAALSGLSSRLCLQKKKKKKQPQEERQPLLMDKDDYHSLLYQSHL

T2: Tyrosinase (Agaricus bisporus, UniProt O42713)
T2 sequence (O42713 whole entry): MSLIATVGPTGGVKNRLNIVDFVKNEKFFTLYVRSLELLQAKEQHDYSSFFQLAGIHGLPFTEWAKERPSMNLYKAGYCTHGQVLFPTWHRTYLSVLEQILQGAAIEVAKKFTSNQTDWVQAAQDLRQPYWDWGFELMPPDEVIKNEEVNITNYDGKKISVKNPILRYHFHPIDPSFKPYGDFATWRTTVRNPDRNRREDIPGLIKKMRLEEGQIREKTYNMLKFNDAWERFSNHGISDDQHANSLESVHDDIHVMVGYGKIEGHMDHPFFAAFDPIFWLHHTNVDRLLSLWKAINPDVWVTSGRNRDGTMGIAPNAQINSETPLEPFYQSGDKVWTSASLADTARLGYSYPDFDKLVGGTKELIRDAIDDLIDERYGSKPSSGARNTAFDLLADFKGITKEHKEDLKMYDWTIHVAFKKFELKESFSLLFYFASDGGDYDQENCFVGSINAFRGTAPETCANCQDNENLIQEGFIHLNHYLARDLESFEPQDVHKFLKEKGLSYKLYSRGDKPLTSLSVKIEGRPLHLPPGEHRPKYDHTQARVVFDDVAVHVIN

T3: Tyrosinase (Agaricus bisporus) (UniProt O42713)
T3 sequence (whole entry): T2 sequence (O42713 whole entry)

B1: Tyrosinase (Agaricus bisporus), O42713 (protein)
chain: T2 sequence (O42713 whole entry)

What was measured:
B16 [1] = assay: Cytotoxicity against mouse B16 cells assessed as viable cells at 0.2 uM after 48 hrs by MTT assay relative to control; format: functional; conditions: B16, 48 h, read-out: Activity
B16 [2] = assay: cells; conditions: Mus musculus, B16, 24 h, read-out: INH
Description: Inhibition of alpha-MSH-induced melanin production in mouse B16 cells at 5 uM after 24 hrs relative to control

[3] = target: T1, Tyrosinase (Mus musculus); assay: Inhibition of tyrosinase in alpha-MSH-induced mouse B16 cells at 2.5 uM; format: cell-based
[4] = target: T1, Tyrosinase (Mus musculus); assay: Inhibition of tyrosinase in alpha-MSH-induced mouse B16 cells at 10 uM; format: cell-based
Tyrosinase [5] = target: T2, Tyrosinase
Description: Inhibition of mushroom tyrosinase using L-tyrosine as a substrate

B16 [6] = assay: cells; conditions: Mus musculus, B16, 24 h, read-out: INH; remark: listed apart in the source
Description: Inhibition of alpha-MSH-induced melanin production in mouse B16 cells at 10 uM after 24 hrs relative to control

[7] = target: T1, Tyrosinase (Mus musculus); assay: Inhibition of tyrosinase in alpha-MSH-induced mouse B16 cells at 1 uM; format: cell-based
[8] = target: T3, Tyrosinase (Agaricus bisporus); assay: Inhibition of mushroom tyrosinase at 0.01 uM using L-tyrosine as a substrate
[9] = target: T1, Tyrosinase (Mus musculus); assay: Inhibition of tyrosinase in alpha-MSH-induced mouse B16 cells at 5 uM; format: cell-based
Tyrosinase [10] = target: T2, Tyrosinase; remark: listed apart in the source
Description: Inhibition of mushroom tyrosinase at 1.25 uM by Lineweaver-Burk plot analysis

Tyrosinase [11] = target: T2, Tyrosinase; remark: listed apart in the source
Description: Inhibition of mushroom tyrosinase at 20 uM by Lineweaver-Burk plot analysis

B16 [12] = assay: cells; conditions: Mus musculus, B16, 24 h, read-out: INH; remark: listed apart in the source
Description: Inhibition of alpha-MSH-induced melanin production in mouse B16 cells at 2.5 uM after 24 hrs relative to control

[13] = target: T3, Tyrosinase (Agaricus bisporus); assay: Inhibition of mushroom tyrosinase at 0.08 uM using L-tyrosine as a substrate
B16 [14] = assay: Cytotoxicity against mouse B16 cells assessed as viable cells at 1 uM after 48 hrs by MTT assay relative to control; format: functional; conditions: B16, 48 h, read-out: Activity
B16 [15] = assay: Cytotoxicity against mouse B16 cells assessed as viable cells at 5 uM after 48 hrs by MTT assay relative to control; format: functional; conditions: B16, 48 h, read-out: Activity
B16 [16] = assay: cells; conditions: Mus musculus, B16, 24 h, read-out: INH; remark: listed apart in the source
Description: Inhibition of alpha-MSH-induced melanin production in mouse B16 cells at 1 uM after 24 hrs relative to control

B16 [17] = assay: Cytotoxicity against mouse B16 cells assessed as viable cells at 10 uM after 48 hrs by MTT assay relative to control; format: functional; conditions: B16, 48 h, read-out: Activity
B16 [18] = assay: Cytotoxicity against mouse B16 cells assessed as viable cells at 2.5 uM after 48 hrs by MTT assay relative to control; format: functional; conditions: B16, 48 h, read-out: Activity
B16 [19] = assay: cells; conditions: Mus musculus, B16, 24 h, read-out: INH; remark: listed apart in the source
Description: Inhibition of alpha-MSH-induced melanin production in mouse B16 cells at 0.2 uM after 24 hrs relative to control

[20] = substrate: Oc1ccc(-c2nc3ccccc3s2)c(O)c1; assay: (§1) Activity of mushroom tyrosinase at 20 uM by Lineweaver-Burk plot analysis; conditions: Agaricus bisporus
[21] = substrate: Oc1ccc(-c2nc3ccccc3s2)cc1; assay: as §1; conditions: Agaricus bisporus
[22] = substrate: Oc1ccc(-c2nc3ccccc3s2)c(O)c1; conditions: Agaricus bisporus; 1.25 uM
[23] = substrate: Oc1ccc(-c2nc3ccccc3s2)cc1; conditions: Agaricus bisporus; 1.25 uM

Row | Molecule | viability at 0.2 µM (B16 [1]) [%] | inhibition at 5 µM (B16 [2]) [%] | inhibition [3] [%] | inhibition [4] [%] | IC50 (Tyrosinase [5]) [nM] | inhibition at 10 µM (B16 [6]) [%] | inhibition [8] [%] | inhibition [9] [%] | Ki (Tyrosinase [10]) [nM] | Ki (Tyrosinase [11]) [nM] | inhibition at 2.5 µM (B16 [12]) [%] | inhibition [13] [%] | viability at 1 µM (B16 [14]) [%] | viability at 5 µM (B16 [15]) [%] | inhibition at 1 µM (B16 [16]) [%] | viability at 10 µM (B16 [17]) [%] | viability at 2.5 µM (B16 [18]) [%] | inhibition at 0.2 µM (B16 [19]) [%] | other results
1 | Oc1ccc(-c2nc3ccccc3s2)cc1 | 99.7 | 104 | 98.8 | 95.2 | 1140 | 97.1 | 45.4 | 97.7 | 567 | 1700 | 129 | 46.2 | 98.9 | 96.5 | 188 | 95.8 | 97.6 | 201 | inhibition [7]: 133%
2 | Oc1ccc(-c2nc3ccccc3s2)c(O)c1 | 96.3 | 141 | 111 | 99.6 | 10 | 131 | 49.9 | 108 | 673 | 7700 | 190 | 70.8 | 94.9 | 94.6 | 217 | 94.4 | 94.7 | 224 | 
3 | B1 |  |  |  |  |  |  |  |  |  |  |  |  |  |  |  |  |  |  | Km [20]: 1460 µM; Km [21]: 5650 µM; Km [22]: 1160 µM; Km [23]: 1020 µM
